# Laboratory results reported in patent US11224614B2, “Compositions and methods for increasing iron intake in a mammal” (Solvotrin Therapeutics Limited, priority 2014, dated 2022).
# Tests used:
# [1] = In-vivo gastrointestinal tolerability (modified GSRS, Bristol Stool Chart), cross-over; design: species or system human; conditions: modified GSRS 0-3, Bristol Stool Chart; p=0.02 and p=0.03
# Description: In a separate study using random, blinded, prospective allocation to beads prepared in accordance with the invention or FeSO4.7H2O in identical size 0 gelatin capsules, in-vivo gastrointesinal tolerability was assessed in a cross-over design. The test articles were taken in the morning after fasting for 10 hours with baseline and 2 hour fasting blood draws. After 2 hours fasting, food was taken as normal and over the following 24 hours, a modified Gastrointestinal Symptom Rating Scale (GSRS) was completed. This rates the following symptoms as 0=none, 1=mild, 2=moderate, 3=severe: • Abdominal pain/cramps • Nausea/vomiting • Abdominal bloating • Borborygmus (abdominal rumbling) • Flatulence/wind
# In addition the products were taken on 3 consecutive days and the Bristol Stool Chart was used to assess constipation/diarrhoea. Positive score changes from baseline normality (=0) indicated constipation.
# [2] = In-vivo efficacy: randomised double-blind cross-over, serum iron over 0-6 hours in fasting subjects; conditions: primary endpoint, p=0.017
# Description: We evaluated the formulation in a randomised, double-blind, controlled with a 28 day cross-over to obtain a minimum of 6 paired evaluable healthy subjects with serum ferritin <100 ng/mL for comparison of the invention versus FeSO4.
# In the analyses, comparisons between groups were conducted using paired sample t-tests for continuous variables and Wilcoxon's Rank Order tests for non-normal distributions. Shapiro-Wilks tests for normality were used to confirm assumptions that primary and secondary endpoints in the study population come from a normal distribution. If assumptions of normality were not possible, log-transformation was used or Wilcoxon's Rank Order tests were applied.
# Subjects returned to the study site (within two weeks of Visit 1) for the first intervention day (Visit 2), after fasting since 10 pm the previous night. Subjects were pre-randomised into one of the two treatment groups with a washout period of four weeks between treatment phases: • Group 1: beads prepared in accordance with the invention, followed by FeSO4 • Group 2: FeSO4, followed by beads prepared in accordance with the invention
# A blood sample was collected immediately after drinking the supplement and at 2 hours, 4 hours and 6 hours after dosing. […] Ferritin and haemoglobin were also assessed. […]
# [3] = Simulated intestinal dissolution, pH 6.6 with pancreatin and bile acids; format: physicochemical; conditions: pH 6.6 over 1 hour, FIG. 5
# Description: A solution of iron (II) sulfate in water (10 mM) was serially diluted using pH 1.8 KCl buffer. Aliquots (100 μl) of the diluted solutions were added to a 96-well plate containing 100 μl of 1,10-phenanthroline (5 mM). The plate was read at 490 nm on a multiwall plate reader in order to construct a calibration curve. Dissolution samples were diluted ten-fold typically at pH 1.6 into phenanthroline (5 mM) and the samples read rapidly under N2 blanketing.
# A 50 mg quantity of beads was transferred to a vial containing 10M HCl (10 ml) and left overnight at room temperature. The resulting solution was shaken and then a 100 μl aliquot was transferred into 900 μl of 10M HCl. A 100 μl aliquot of the diluted solution was added to a 96-well plate containing 1M sodium thiocyanate (100 μl). Absorbance was measured at 450 nm on a multiwell plate reader. The concentration of the iron III was estimated by reference to a series of iron III standard solutions.
# An accurately weighed sample (approximately 50 mg) of microbeads was transferred into a three necked vessel into which had been placed 15 ml pH 6.6 buffers (containing 0.1 M sodium bicarbonate, 10 mg/ml bile acid extract, 1.85 mg/ml pancreatin, adjust to pH 6.6 with 1M HCl) at 37° C. Generally, at 1, 15, 30, 45, 60 and occasionally at 90, 120 min time points, samples were taken for iron (II) and iron (III) measurement. […]
substance,measurement,setting,value
ferrous sulfate [FeSO4],"symptoms scores for abdominal pain/cramps, nausea, flatulence and constipation",[1],Significantly higher symptoms scores
same,"serum iron Trough to Peak Differential (TPD) over 0-6 hours, median",[2],9.7 µmol/L
same,iron II and total iron (ferrous and ferric) profile in dissolution,[3],undergoes oxidation and precipitates as ferric hydroxides
